Experimental data from Sander's compilation of Henry's law constants.
Where “and” joins values, the source holds several entries; their conditions need not be identical. Equal values may be shown once. Each block holds one compound with its values, some of them ahead of it.

Assay: Henry solubility constant Hcp at 298.15 K (mol/(m3 Pa))
[1] = reference: Ömür-Özbek and Dietrich (2005)
[2] = reference: Murphy et al. (1983a)
[3] = reference: Dohányosová et al. (2004)
[4] = reference: Charles and Destaillats (2005)
[5] = reference: Copolovici and Niinemets (2005)
[6] = reference: Kuramochi et al. (2004)
[7] = reference: Xu and Kropscott (2014)
[8] = reference: Hawthorne et al. (1985)

Structure (SMILES): CN(Cl)Cl [N,N-dichloromethylamine]
Henry solubility constant Hcp (reference: Cimetiere and de Laat (2009)): 0.0033

Structure (SMILES): O=Cc1ccccc1 [benzaldehyde]
Henry solubility constant Hcp (reference: Allen et al. (1998)): 0.35 | Henry solubility constant Hcp (reference: Allou et al. (2011)): 0.32 | Henry solubility constant Hcp (reference: Souchon et al. (2004)): 0.34

Henry solubility constant Hcp (reference: Goss et al. (2006)): 0.0015 | Henry solubility constant Hcp (reference: Lei et al. (2004)): 8.5e-05 | Henry solubility constant Hcp (reference: Wu and Chang (2011)): 0.00017
Structure (SMILES): OCCC(F)(F)C(F)(F)C(F)(F)C(F)(F)C(F)(F)C(F)(F)F [1H,1H,2H,2H-perfluoro-1-octanol]

Henry solubility constant Hcp [1]: 0.089
Structure (SMILES): CC1(C)[C@@H]2CC[C@@]1(C)[C@](C)(O)C2 [2-methylisoborneol]

Structure (SMILES): Clc1ccc(-c2cc(Cl)c(Cl)c(Cl)c2Cl)c(Cl)c1 [2,2',3,4,4',5-hexachlorobiphenyl]
Henry solubility constant Hcp [2]: 0.021

Henry solubility constant Hcp [3]: 2e-05 | Henry solubility constant Hcp (reference: Heidman et al. (1985)): 3.1e-05
Structure (SMILES): CCC1CCCCC1 [ethylcyclohexane]

Structure (SMILES): Cc1cc(Cl)ccc1OCC(=O)O [(2-methyl-4-chlorophenoxy)acetic acid]
Henry solubility constant Hcp (reference: Mabury and Crosby (1996)): > 99

Henry solubility constant Hcp (reference: Fenclová et al. (2010)): 0.64
Structure (SMILES): CCC(O)CC [3-pentanol]

Henry solubility constant Hcp [4]: 0.88
Structure (SMILES): Brc1ccc(Oc2cc(Br)c(Br)c(Br)c2Br)cc1 [2,3,4,4',5-pentabromodiphenyl ether]

Structure (SMILES): COC(=O)OC [carbonic acid, dimethyl ester]
Henry solubility constant Hcp (reference: Böhme et al. (2008)): 0.16

Structure (SMILES): ClNCl [dichloramine]
Henry solubility constant Hcp (reference: Holzwarth et al. (1984)): 0.28

Henry solubility constant Hcp [5]: 0.00038
Structure (SMILES): CC1=CCC(=C(C)C)CC1 [1-methyl-4-(1-methylethylidene)-cyclohexene]

Structure (SMILES): CC(F)(Cl)Cl [1,1-dichloro-1-fluoroethane]
Henry solubility constant Hcp (reference: Kutsuna (2013)): 0.00029 | Henry solubility constant Hcp (reference: Maaßen (1995)): 0.00028

Structure (SMILES): Brc1ccc(Br)c(Br)c1 [1,2,4-tribromobenzene]
Henry solubility constant Hcp [6]: 0.031

Henry solubility constant Hcp [7]: 3.4e-07
Structure (SMILES): C[Si](C)(C)O[Si](C)(C)O[Si](C)(C)C [octamethyltrisiloxane]

Structure (SMILES): ClC1=C(Cl)C2(Cl)C3C(Cl)C(Cl)C(Cl)C3C1(Cl)C2(Cl)Cl (stereo not drawn) [trans-nonachlor]
Henry solubility constant Hcp (reference: Jantunen and Bidleman (2006)): 0.031

Henry solubility constant Hcp [5]: 0.00029 | Henry solubility constant Hcp (reference: Schuhfried et al. (2015)): 0.00038
Structure (SMILES): CC1=CC=C(C(C)C)CC1 [1-methyl-4-(1-methylethyl)-1,3-cyclohexadiene]

Structure (SMILES): CCN [ethanamine]
Henry solubility constant Hcp (reference: Butler and Ramchandani (1935)): 0.99 | Henry solubility constant Hcp (reference: Christie and Crisp (1967)): 0.8

Henry solubility constant Hcp (reference: Haimi et al. (2006)): 0.0019
Structure (SMILES): CCCCCC(C)(C)OC [2-methoxy-2-methylheptane]

Henry solubility constant Hcp [3]: 2.4e-06
Structure (SMILES): CC(C)CCC(C)C [2,5-dimethylhexane]

Henry solubility constant Hcp (reference: Sagebiel et al. (1992)): 7.7 and 7.1
Structure (SMILES): COc1cc(C)ccc1O [4-methyl-2-methoxyphenol]

Henry solubility constant Hcp (reference: Nguyen (2013)): 2900
Structure (SMILES): OCCN1CCNCC1 [N-(2-hydroxyethyl)piperazine]

Henry solubility constant Hcp (reference: Fichan et al. (1999)): 0.023
Structure (SMILES): CC1(C)C2CC3OC3(C)C1C2 (stereo not given) [2,7,7-trimethyl-3-oxatricyclo[4.1.1.0(2,4)]octane]

Henry solubility constant Hcp (reference: Buttery et al. (1971)): 4.5
Structure (SMILES): Cc1cnccn1 [2-methylpyrazine]

Henry solubility constant Hcp (reference: Serra and Palavra (2003)): 4.5e-05
Structure (SMILES): C=CCC [1-butene]

Structure (SMILES): Brc1ccc(Oc2c(Br)cc(Br)cc2Br)c(Br)c1 [2,2',4,4',6-pentabromodiphenyl ether]
Henry solubility constant Hcp (reference: Cetin and Odabasi (2005)): 3.8 | Henry solubility constant Hcp [4]: 0.19 | Henry solubility constant Hcp (reference: Long et al. (2017)): 3.6

Henry solubility constant Hcp (reference: Clarke et al. (1962)): 0.00016
Structure (SMILES): CC(C)(C)Cl [2-chloro-2-methylpropane]

Henry solubility constant Hcp [8]: 0.82
Structure (SMILES): O=C1CCCC1 [cyclopentanone]

Structure (SMILES): Clc1c(Cl)c(Cl)c2c(c1Cl)Oc1ccccc1O2 [1,2,3,4-tetrachlorodibenzo-p-dioxin]
Henry solubility constant Hcp (reference: Santl et al. (1994)): 0.5

Structure (SMILES): ClC1=C(Cl)C2(Cl)C3C4OC4C(Cl)C3C1(Cl)C2(Cl)Cl (stereo not given) [heptachlorepoxide]
Henry solubility constant Hcp (reference: Warner et al. (1980)): 0.31

Henry solubility constant Hcp [6]: 0.0027
Structure (SMILES): Brc1cc(Br)c(Br)cc1Br [1,2,4,5-tetrabromobenzene]

Henry solubility constant Hcp [1]: 0.081
Structure (SMILES): C[C@@H]1CCC[C@]2(C)CCCC[C@@]12O [geosmin]

Structure (SMILES): Clc1ccc(-c2cc(Cl)c(Cl)cc2Cl)cc1Cl [2,3',4,4',5-pentachlorobiphenyl]
Henry solubility constant Hcp [4]: 0.018 | Henry solubility constant Hcp [2]: 0.025

Structure (SMILES): CC(=O)O[O] [peroxyacetyl radical]
Henry solubility constant Hcp (reference: Villalta et al. (1996)): < 0.00099

Structure (SMILES): CCS [ethanethiol]
Henry solubility constant Hcp (reference: Jou et al. (2021)): 0.0024 | Henry solubility constant Hcp (reference: Vitenberg et al. (1975)): 0.0022

Structure (SMILES): Clc1ccc(-c2ccc(Cl)c(Cl)c2)cc1Cl [3,3',4,4'-tetrachlorobiphenyl]
Henry solubility constant Hcp [4]: 0.029

Henry solubility constant Hcp (reference: Bakierowska and Trzeszczyński (2003)): 0.0031
Structure (SMILES): C/C=C/CCl [(E)-1-chloro-2-butene]

Henry solubility constant Hcp (reference: Aprea et al. (2007)): 0.037 | Henry solubility constant Hcp (reference: Ioffe et al. (1984)): 0.036
Structure (SMILES): CCCC(=O)OC [methyl butanoate]

Structure (SMILES): COc1c(Cl)cc(Cl)cc1Cl [1,3,5-trichloro-2-methoxybenzene]
Henry solubility constant Hcp (reference: Wu et al. (2022a)): 0.023

Structure (SMILES): Clc1cc(Cl)c(-c2c(Cl)ccc(Cl)c2Cl)cc1Cl [2,2',3,4',5',6-hexachlorobiphenyl]
Henry solubility constant Hcp [2]: 0.033

Henry solubility constant Hcp [8]: 0.82
Structure (SMILES): O=C1CCCCC1 [cyclohexanone]

Structure (SMILES): O=C(O)CBr [bromoethanoic acid]
Henry solubility constant Hcp (reference: Bowden et al. (1998a)): 1500

Structure (SMILES): CN=C=S [methyl isothiocyanate]
Henry solubility constant Hcp (reference: Worthington and Wade (2007)): 0.16

Structure (SMILES): C1CO1 [oxirane]
Henry solubility constant Hcp (reference: Conway et al. (1983)): 0.058

Structure (SMILES): CCOC(=O)C(F)(F)F [trifluoroethanoic acid, ethyl ester]
Henry solubility constant Hcp (reference: Kutsuna and Kaneyasu (2021)): 0.00071 | Henry solubility constant Hcp (reference: Kutsuna et al. (2005)): 0.00089

Structure (SMILES): Cc1ccccc1O [1-hydroxy-2-methylbenzene]
Henry solubility constant Hcp (reference: Dohnal and Fenclová (1995)): 5.6 | Henry solubility constant Hcp (reference: Feigenbrugel et al. (2004b)): 4.2 | Henry solubility constant Hcp (reference: Harrison et al. (2002)): 11 | Henry solubility constant Hcp (reference: Parsons et al. (1972)): 8.2

Henry solubility constant Hcp (reference: Brockbank et al. (2013)): 0.029
Structure (SMILES): COc1ccccc1 [methoxybenzene]

Structure (SMILES): [CH3][Hg][CH3] [dimethylmercury]
Henry solubility constant Hcp (reference: Talmi and Mesmer (1975)): 0.0013

Structure (SMILES): CC(=O)C(=O)O [2-oxopropanoic acid]
Henry solubility constant Hcp (reference: Khan and Brimblecombe (1992)): 3100 | Henry solubility constant Hcp (reference: Khan et al. (1992)): 3100 | Henry solubility constant Hcp (reference: Khan et al. (1995)): 3100

Henry solubility constant Hcp (reference: Haimi et al. (2006)): 0.0013 | Henry solubility constant Hcp (reference: Zin et al. (2016)): 0.0016
Structure (SMILES): CC(C)S [2-propanethiol]

Henry solubility constant Hcp (reference: Sarraute et al. (2006)): 0.0071
Structure (SMILES): ClCCCCCCCCCl [1,8-dichlorooctane]

Henry solubility constant Hcp [7]: 0.07
Structure (SMILES): C[Si](C)(C)O [trimethylsilanol]

Henry solubility constant Hcp (reference: Park et al. (1982)): 1.2e-06 | Henry solubility constant Hcp (reference: Scharlin and Battino (1994)): 1.3e-06 | Henry solubility constant Hcp (reference: Wen and Muccitelli (1979)): 1.2e-06
Structure (SMILES): FC1(F)C(F)(F)C(F)(F)C1(F)F [octafluorocyclobutane]

Structure (SMILES): CCCl [chloroethane]
Henry solubility constant Hcp (reference: Chen et al. (2012)): 0.00076 | Henry solubility constant Hcp (reference: Gossett (1987)): 0.00088 | Henry solubility constant Hcp (reference: Maaßen (1995)): 0.00089 | Henry solubility constant Hcp (reference: Reichl (1995)): 0.00093

Structure (SMILES): O=NO [nitrous acid]
Henry solubility constant Hcp (reference: Becker et al. (1996)): 0.47 | Henry solubility constant Hcp (reference: Becker et al. (1998)): 0.47 | Henry solubility constant Hcp (reference: Komiyama and Inoue (1978)): 0.37 | Henry solubility constant Hcp (reference: Park and Lee (1988)): 0.48

Structure (SMILES): Clc1ccc2c(c1)Oc1ccc(Cl)cc1O2 [2,7-dichlorodibenzo-p-dioxin]
Henry solubility constant Hcp (reference: Santl et al. (1994)): 0.17

Henry solubility constant Hcp (reference: Lindinger et al. (1998)): 0.0041
Structure (SMILES): C=CCSCC=C [3,3'-thiobis-1-propene]

Henry solubility constant Hcp (reference: Plyasunov (2012)): 2.3e+10
Structure (SMILES): O[Si](O)(O)O [silicic acid]

Structure (SMILES): Clc1cc(Cl)c(-c2cc(Cl)c(Cl)cc2Cl)cc1Cl [2,2',4,4',5,5'-hexachlorobiphenyl]
Henry solubility constant Hcp [2]: 0.028

Henry solubility constant Hcp (reference: Ashton et al. (1968)): 1.4e-05 | Henry solubility constant Hcp (reference: Cosgrove and Walkley (1981)): 1.4e-05 | Henry solubility constant Hcp (reference: Crovetto et al. (1982)): 1.4e-05 | Henry solubility constant Hcp (reference: Friedman (1954)): 1.4e-05 | Henry solubility constant Hcp (reference: Krause and Benson (1989)): 1.4e-05 | Henry solubility constant Hcp (reference: Lannung (1930)): 1.4e-05 | Henry solubility constant Hcp (reference: Morrison and Johnstone (1954)): 1.3e-05 | Henry solubility constant Hcp (reference: Murray and Riley (1970)): 1.4e-05 | Henry solubility constant Hcp (reference: Park et al. (1982)): 1.4e-05 | Henry solubility constant Hcp (reference: Potter II and Clynne (1978)): 1.4e-05 | Henry solubility constant Hcp (reference: Rettich et al. (1992)): 1.4e-05 | Henry solubility constant Hcp (reference: Shoor et al. (1969)): 1.4e-05 | Henry solubility constant Hcp (reference: Winkler (1906)): 1.5e-05 | Henry solubility constant Hcp (reference: von Antropoff (1910)): 1.6e-05
Structure (SMILES): [Ar] [argon]

Structure (SMILES): CCCC=O [butanal]
Henry solubility constant Hcp (reference: Buttery et al. (1965)): 0.064 | Henry solubility constant Hcp (reference: Ji and Evans (2007)): 0.089

Structure (SMILES): Clc1cccc(-c2ccc(Cl)c(Cl)c2Cl)c1Cl [2,2',3,3',4-pentachlorobiphenyl]
Henry solubility constant Hcp [2]: 0.049

Structure (SMILES): COc1cc(CC(C)=O)ccc1O [guaiacylacetone]
Henry solubility constant Hcp (reference: McFall et al. (2020)): 12000
